Read-outs that look alike come from different tables or passages of the source.
Experiments:
[1] = system: Heliothis virescens (Tobacco budworm); assay: Heliothis virescens egg test on artificial diet; format: in vivo; conditions: 96 h, read-out: control of Heliothis virescens
Description: (§1) This Example illustrates the insecticidal and acaricidal properties of compounds of formula (I). The tests were performed as follows:
(§2) Cotton leaf discs were placed on agar in a 24-well microtiter plate and sprayed with test solutions at an application rate of 200 ppm. After drying, the leaf discs were infested with 5 L1 larvae. The samples were checked for mortality, feeding behavior, and growth regulation 3 days after treatment (DAT). The following compound gave at least 80% control of Spodoptera littoralis: A1, A2, A5, A6, A7, A8, A10, A11, A12, A13, A14, A15, A16, A17, A18, A19, A21, A22, A23, A24, A25, A30, A31, A32, A33, A34, A35, A39, A40, A41 A42, A43, A44, A45, A46, A47, A48, A49, A50, A51, A53, A54, A55, A59, A60, A61, A62. Heliothis virescens (Tobacco budworm): Eggs (0-24 h old) were placed in 24-well microtiter plate on artificial diet and treated with test solutions at an application rate of 200 ppm (concentration in well 18 ppm) by pipetting. After an incubation period of 4 days, samples were checked for egg mortality, larval mortality, and growth regulation. The following compound gave at least 80% control of Heliothis virescens: A1, A2, A3, A4, A5, A6, A7, A8, A10, A11, A12, A13, A14, A15, A16, A18, A19, A21, A22, A24, A25, A30, A31, A32, A33, A34, A35, A37, A38, A39, A40, A42, A43, A44, A45, A46, A47, A48, A49, A50, A51, A55, AA57, A58, A59, A60, A61, A62. Plutella xylostella (Diamond back moth): 24-well microtiter plate (MTP) with artificial diet was treated with test solutions at an application rate of 200 ppm (concentration in well 18 ppm) by pipetting. After drying, the MTP's were infested with L2 larvae (7-12 per well). After an incubation period of 6 days, samples were checked for larval mortality and growth regulation. The following compound gave at least 80% control of Plutella xylostella: A1, A2, A5, A6, A7, A8, A9, A10, A11, A12, A13, A14, A15, A16, A17, A18, A19, A20, A21, A22, A24, A25, A30, A31, A32, A33, A34, A35, A37, A38, A39, A40, A42, A43, A44, A45, A46, A47, A48, A49, A50, A51, A52, A53, A54, A55, A57, A58, A59, A60, A61, A62, B3. Diabrotica balteata (Corn root worm): A 24-well microtiter plate (MTP) with artificial diet was treated with test solutions at an application rate of 200 ppm (concentration in well 18 ppm) by pipetting. After drying, the MTP's were infested with L2 larvae (6-10 per well). After an incubation period of 5 days, samples were checked for larval mortality and growth regulation. The following compound gave at least 80% control of Diabrotica balteata: A1, A2, A5, A6, A7, A10, A11, A12, A13, A14, A15, A16, A17, A18, A19, A21, A22, A24, A25, A30, A31, A32, A33, A34, A35, A38, A39, A40, A42, A43, A44, A45, A46, A47, A48, A49, A50, A59, A60, A61, A62. Thrips tabaci (Onion thrips): Sunflower leaf discs were placed on agar in a 24-well microtiter plate and sprayed with test solutions at an application rate of 200 ppm. After drying, the leaf discs were infested with an […] population of mixed ages. After an incubation period of 7 days, samples were checked for mortality. The following compounds gave at least 80% control of Thrips tabaci: A1, A2, A5, A6, A7, A8, A10, A12, A13, A14, A15, A16, A17, A18, A19, A21, A24, A25, A30, A31, A32, A33, A34, A35, A39, A42, A43, A44, A45, A46, A47, A48, A49, A50, A51, A53, A54, A57, A58, A59, A60, A61, A62. Tetranychus urticae (Two-spotted spider mite): Bean leaf discs on agar in 24-well microtiter plates were sprayed with test solutions at an application rate of 200 ppm. After drying, the leaf discs are infested with mite populations of mixed ages. 8 days later, discs are checked for egg mortality, larval mortality, and adult mortality. The following compound gave at least 80% control of Tetranychus urticae: A1, A2, A4, A5, A6, A7, A8, A10, A11, A12, A13, A14, A15, A16, A17, A18, A19, A20, A21, A22, A30, A31, A32, A33, A34, A35, A39, A40, A41, A42, A43, A44, A45, A46, A47, A48, A49, A50, A51, A53, A54, A55, A57, A59, A60, A61, A62.

[2] = system: Tetranychus urticae (Two-spotted spider mite); assay: Tetranychus urticae bean leaf disc spray test; format: in vivo; conditions: foliar, 192 h, read-out: control of Tetranychus urticae
Description: as §1, §2

[3] = system: Plutella xylostella (Diamond back moth); assay: Plutella xylostella larvae test on artificial diet; format: in vivo; conditions: 144 h, 200 ppm (concentration in well 18 ppm), artificial diet, L2 larvae, larval mortality and growth regulation after 6 days
Description: as §1, §2

[4] = system: Diabrotica balteata (Corn root worm); assay: Diabrotica balteata larvae test on artificial diet; format: in vivo; conditions: 120 h, 200 ppm (concentration in well 18 ppm), artificial diet, L2 larvae, larval mortality and growth regulation after 5 days
Description: as §1, §2

[5] = system: Spodoptera littoralis (Egyptian cotton leafworm); assay: Spodoptera littoralis cotton leaf disc spray test; format: in vivo; conditions: foliar, 72 h, 200 ppm spray on cotton leaf discs, L1 larvae, mortality, feeding behavior, growth regulation 3 days after treatment
Description: as §1
Spodoptera littoralis (Egyptian cotton leafworm):
as §2, with “The following compound gave at least 80% control of Tetranychus urticae: A1, A2, A4, A5, A6, A7, A8, A10, A11, A12, A13, A14, A15, A16, A17, A18, A19, A20, A21, A22, A30, A31, A32, A33, A34, A35, A39, A40, A41, A42, A43, A44, A45, A46, A47, A48, A49, A50, A51, A53, A54, A55, A57, A59, A60, A61, A62.” left out

[6] = system: Thrips tabaci (Onion thrips); assay: Thrips tabaci sunflower leaf disc spray test; format: in vivo; conditions: foliar, 168 h, 200 ppm spray on sunflower leaf discs, population of mixed ages, mortality after 7 days
Description: as §1, §2

[7] = 200 ppm spray on bean leaf discs, mite populations of mixed ages, egg, larval and adult mortality 8 days later
[8] = 200 ppm (concentration in well 18 ppm), eggs 0-24 h old on artificial diet, egg mortality, larval mortality, growth regulation after 4 days

In the case of `Cc1cc(N2CC2(c2cc(Cl)cc(Cl)c2)C(F)(F)F)ccc1C(=O)NC1(C)CSC1` (centres unmarked) [A3], the pest or weed control at 200 ppm [1] is reported as ≥ 80%.
For `Cc1cc(N2CC2(c2cc(Cl)cc(Cl)c2)C(F)(F)F)ccc1C(=O)NC1CSC1` (centres unmarked) [A4], the pest or weed control at 200 ppm [1] was ≥ 80% and the pest or weed control at 200 ppm [2] was ≥ 80%.
For `Cc1cc(N2CC(c3cc(Cl)cc(Cl)c3)(C(F)(F)F)OC2=O)ccc1C(=O)NC1(C)CSC1` (centres unmarked) [A9], the pest or weed control at 200 ppm [3] was ≥ 80%.
For `Cc1cc(C2CC(c3cc(Cl)cc(Cl)c3)(C(F)(F)F)ON2C)ccc1C(=O)NC1(C)CSC1` (centres unmarked) [A20], the pest or weed control at 200 ppm [3] was ≥ 80% and the pest or weed control at 200 ppm [2, 7] was ≥ 80%.
With `O=C(NC1C[S+]([O-])C1)c1ccc(C2=NOC(c3cc(Cl)cc(Cl)c3)(C(F)(F)F)C2)c2nsnc12` (centres unmarked) [A24] the pest or weed control at 200 ppm [3] was ≥ 80%.
In the case of `O=C(NC1CSC1)c1ccc(C2=NOC(c3cc(Cl)cc(Cl)c3)(C(F)(F)F)C2)c2nsnc12` (centres unmarked) [A25], the pest or weed control at 200 ppm [3] is reported as ≥ 80%.
For `C/C=C1\C(c2ccc(C(=O)NC3CSC3)c(C)c2)=NOC1(c1cc(Cl)cc(Cl)c1)C(F)(F)F` (centres unmarked) [A30], the pest or weed control at 200 ppm [3] was ≥ 80%, the pest or weed control at 200 ppm [1, 8] was ≥ 80% and the pest or weed control at 200 ppm [4] was ≥ 80%.
For `O=C(NC1C[S+]([O-])C1)c1cccc2c(C3=NOC(c4cc(Cl)cc(Cl)c4)(C(F)(F)F)C3)cccc12` (centres unmarked) [A37], the pest or weed control at 200 ppm [3] was ≥ 80% and the pest or weed control at 200 ppm [1, 8] was ≥ 80%.
For `O=C(NC1CSC1)c1cccc2c(C3=NOC(c4cc(Cl)cc(Cl)c4)(C(F)(F)F)C3)cccc12` (centres unmarked) [A38], the pest or weed control at 200 ppm [3] was ≥ 80%, the pest or weed control at 200 ppm [1, 8] was ≥ 80% and the pest or weed control at 200 ppm [4] was ≥ 80%.
For `Cc1cc(C2=NOC(c3cc(Cl)cc(Cl)c3)(C(F)(F)F)C2S(C)(=O)=O)ccc1C(=O)NC1CSC1` (centres unmarked) [A41], the pest or weed control at 200 ppm [5] was ≥ 80%.
For `Cc1cc(C2=NOC(c3cc(Cl)cc(Cl)c3)(C(F)(F)F)C2O)ccc1C(=O)NC1(C)CSC1` (centres unmarked) [A52], the pest or weed control at 200 ppm [3] was ≥ 80%.
In the case of `Cc1cc(C2=NOC(c3cc(Cl)cc(Cl)c3)(C(F)(F)F)/C2=N/O)ccc1C(=O)NC1C[S+]([O-])C1` (centres unmarked) [A57], the pest or weed control at 200 ppm [3] is reported as ≥ 80%, the pest or weed control at 200 ppm [1, 8] is reported as ≥ 80% and the pest or weed control at 200 ppm [6] is reported as ≥ 80%. For the same compound, the pest or weed control at 200 ppm [2, 7] was ≥ 80%.
`Cc1nn(C2=NOC(c3cc(Cl)cc(Cl)c3)(C(F)(F)F)C2)cc1C(=O)NC1CSC1` (centres unmarked) [B1] showed a melting point of 177 to 180 °C.
Compound `Cc1c(C(=O)NC2CSC2)cnn1C1=NOC(c2cc(Cl)cc(Cl)c2)(C(F)(F)F)C1` (centres unmarked) [B2] has a melting point of 77 °C.
With `O=C(NC1CSC1)c1ccn(C2=NOC(c3cc(Cl)cc(Cl)c3)(C(F)(F)F)C2)n1` (centres unmarked) [B3] the pest or weed control at 200 ppm [3] was ≥ 80%.
For `O=C(NC1CSC1)c1cnn(C2=NOC(c3cc(Cl)cc(Cl)c3)(C(F)(F)F)C2)c1` (centres unmarked) [B4], the melting point was 85 to 87 °C.
